From patent publication US20150189876A1, “CROP ENHANCEMENT COMPOSITIONS” (Syngenta Participations AG, priority 2012, published 2015)
Read-outs that look alike come from different tables or passages of the source.

How the values were obtained:
[1] = system: Heliothis virescens; assay: Egg and larval mortality on artificial diet, 24-well plate, 4 days; type: in vivo
Protocol: 2.1 Heliothis virescens (Tobacco Budworm)
Eggs (0-24 h old) were placed in a 24-well microtiter plate on artificial diet and treated with test solutions by pipetting. After an incubation period of 4 days, samples were checked for egg mortality and larval mortality.

[2] = system: Myzus persicae; assay: Leaf disc spray test, 24-well plate, mortality after 6 days (Table 2.3); type: in vivo
Protocol: 2.2 Myzus persicae (Green Peach Aphid)
Sunflower leaf discs were placed on agar in a 24-well microtiter plate and sprayed with test solutions. After drying, the leaf discs were infested with an aphid population of mixed ages. After an incubation period of 6 days, samples were checked for mortality.

[3] = system: Tetranychus urticae; assay: Leaf disc spray test, 24-well plate, mortality after 6 days (Table 2.2); type: in vivo
Protocol: 2.3 Tetranychus urticae (Two-Spotted Spider Mite)
Bean leaf discs were placed on agar in 24-well microtiter plates sprayed with test solutions. After drying, the leaf discs were infested with a mite population of mixed ages. After an incubation period of 6 days, samples were checked for larval mortality, and adult mortality.

[4] = system: Fusarium culmorum; assay: In vitro antifungal checkerboard test, fungal growth by OD450 in 96-well microtiter plates; type: cell-based
Protocol: (§1) In vitro antifungal activity of fungicides in combination with a compound of formula (II) was evaluated in 96 well-microtiter plate system using the checkerboard method (Vitale, R. G, Afeltra, J., and Dannaoui, E. 2005: Methods in Molecular Medicine, Vol. 118, Antifungal Agents: Methods and Protocols p. 143-152). Active ingredients were two-fold serially diluted in DMSO and mixed with double strength Potato Dextrose Broth or Alkyl Ester agar (AE medium, Miguez, M., Reeve, C., Wood, P. M. and Hollomon, D. W. (2004), Alternative oxidase reduces the sensitivity of Mycosphaerella graminicola to QOI fungicides. Pest. Manag. Sci., 60: 3-7) before filled into wells according to the checkerboard format. Each dilution well containing was inoculated with fungal spore suspension to receive a final concentration of 1×10^4 spores/ml per well. Wells of last column containing only medium and spore suspension were included as control. Three replicated microtiter plates were used in each test system. Fungal growth in each well of the micro-plates was assessed spectrophotometrically at OD450 nm (16-scan point spectrophotometer, Tecan) after inoculation [OD(0 h)=background value] and after an incubation period of 72 h [OD(72 h)] at 25° C. in the dark. Fungal growth was described as increase in OD450 nm during the time interval from 0 h to 72 h [OD(72 h)-OD(0 h)]. Fungal growth in each well of the micro-plates was assessed spectrophotometrically at OD450 nm (16-scan point spectrophotometer, Tecan) after inoculation and after an incubation period of 3-6 days at 25° C. in the dark. Fungal growth was described as increase in OD450 nm during incubation period.

[5] = system: Fusarium culmorum; Aspergillus parasiticus; Pyrenophora teres; assay: In vitro antifungal checkerboard test, overall statement on Tables 1.1 to 1.5; type: cell-based
Protocol: as §1

[6] = system: Pyrenophora teres; assay: In vitro antifungal checkerboard test, fungal growth by OD450 in 96-well microtiter plates; type: cell-based; conditions: for Sedaxane Inhibition (%): Sedaxane alone
Protocol: as §1

[7] = system: Aspergillus parasiticus; assay: as above; type: cell-based; conditions: for Azoxystrobin Inhibition (%): Azoxystrobin alone
Protocol: as §1

[8] = Thiabendazole alone, read-out: Thiabendazole Inhibition (%)
[9] = Tebuconazole alone, read-out: Tebuconazole Inhibition (%)
[10] = Formula (II) 0.000003 ppm alone
[11] = Compound II alone, read-out: Compound II Inhibition (%)
[12] = Prothioconazole alone, read-out: Prothioconazole Inhibition (%)

O=[N+]([O-])NC1=NCCN1Cc1ccc(Cl)nc1 [Imidacloprid, imidacloprid, reference compound]
% control (average of 2 reps) ([1]; Imidacloprid 200 ppm alone): 100% | % control (average of 2 reps) ([2]; Imidacloprid 1.6 ppm alone): 100%

CNC(=O)c1cc(Cl)cc(C)c1NC(=O)c1cc(Br)nn1-c1ncccc1Cl [Chlorantraniliprole, chlorantraniliprole, reference compound]
% control (average of 2 reps) ([3]; Chlorantraniliprole 400 ppm alone): 95% | % control (average of 2 reps) ([1]; Chlorantraniliprole 0.4 ppm alone): 90%

c1ccc2[nH]c(-c3cscn3)nc2c1 [Thiabendazole, thiabendazole, reference compound]
inhibition at 64 ppm [4, 8]: 98.3% | inhibition at 128 ppm [4, 8]: 99.4%

CC(C)(C)C(O)(CCc1ccc(Cl)cc1)Cn1cncn1 (centres unmarked) [Tebuconazole, tebuconazole, reference compound]
inhibition at 4 ppm [4, 9]: 97.1% | inhibition at 8 ppm [4, 9]: 90.1%

CC1=C[C@H](O/C=C2/C(=O)NC3c4ccccc4CC23)OC1=O (some centres unmarked) [Compound II]
synergistic effect on the activity of fungicides ([5]; at some rates): provides a synergistic effect on the activity of fungicides at some rates | fungicidal activity of the compound of formula (II) alone ([5]; in general, Tables 1.1 to 1.5): did not cause any, or only very low levels of fungicidal activity | antagonism of the activity of the fungicides tested ([5]; in general, mixtures of Tables 1.1 to 1.5): did not antagonise the activity of any of the fungicides tested | % control (average of 2 reps) [3, 10]: 0% | % control (average of 2 reps) ([3]; Formula (II) 0.0003 ppm alone): 0% | % control (average of 2 reps) ([3]; Formula (II) 0.03 ppm alone): 0% | % control (average of 2 reps) ([3]; Formula (II) 1 ppm alone): 0% | antagonism of the activity of the insecticides ([3]; mixtures of Table 2.2): did not antagonise the activity of any of the insecticides | inhibition at 0.0625 ppm ([4]; Compound II alone, 0.0625 ppm): 1.8% | inhibition at 0.125 ppm ([4]; Compound II alone, 0.125 ppm): 6.5% | inhibition at 0.25 ppm ([4]; Compound II alone, 0.25 ppm): 3.2% | inhibition at 0.5 ppm ([4]; Compound II alone, 0.5 ppm): 1.2% | inhibition at 1 ppm ([4]; Compound II alone, 1 ppm): 0% | inhibition at 2 ppm ([4]; Compound II alone, 2 ppm): 2.5% | inhibition at 4 ppm [4, 11]: 1.3% | inhibition at 8 ppm [4, 11]: 0% | inhibition at 16 ppm ([4]; Compound II alone, 16 ppm): 0% | inhibition at 32 ppm ([4]; Compound II alone, 32 ppm): 0% | inhibition at 0.25 ppm ([6]; Pyrenophora teres, Compound II alone, 0.25 ppm): 0% | inhibition at 0.5 ppm ([6]; Pyrenophora teres, Compound II alone, 0.5 ppm): 0% | inhibition at 1 ppm ([6]; Pyrenophora teres, Compound II alone, 1 ppm): 0% | inhibition at 2 ppm ([6]; Pyrenophora teres, Compound II alone, 2 ppm): 0% | inhibition at 4 ppm ([6]; Pyrenophora teres, Compound II alone, 4 ppm): 0% | inhibition at 8 ppm ([6]; Pyrenophora teres, Compound II alone, 8 ppm): 0% | inhibition at 16 ppm ([6]; Pyrenophora teres, Compound II alone, 16 ppm): 0% | inhibition at 32 ppm ([6]; Pyrenophora teres, Compound II alone, 32 ppm): 0% | inhibition at 64 ppm ([6]; Pyrenophora teres, Compound II alone, 64 ppm): 0% | inhibition at 128 ppm ([6]; Pyrenophora teres, Compound II alone, 128 ppm): 3.9% | inhibition at 0.125 ppm ([7]; Aspergillus parasiticus, Compound II alone, 0.125 ppm): 8.7% | inhibition at 0.25 ppm ([7]; Aspergillus parasiticus, Compound II alone, 0.25 ppm): 11.3% | inhibition at 0.5 ppm ([7]; Aspergillus parasiticus, Compound II alone, 0.5 ppm): 9.3% | inhibition at 1 ppm ([7]; Aspergillus parasiticus, Compound II alone, 1 ppm): 9.6% | inhibition at 2 ppm ([7]; Aspergillus parasiticus, Compound II alone, 2 ppm): 0.5% | inhibition at 4 ppm ([7]; Aspergillus parasiticus, Compound II alone, 4 ppm): 5.4% | inhibition at 8 ppm ([7]; Aspergillus parasiticus, Compound II alone, 8 ppm): 20.5% | inhibition at 16 ppm ([7]; Aspergillus parasiticus, Compound II alone, 16 ppm): 22.1% | inhibition at 32 ppm ([7]; Aspergillus parasiticus, Compound II alone, 32 ppm): 2% | inhibition at 64 ppm ([7]; Aspergillus parasiticus, Compound II alone, 64 ppm): 11.3% | % control (average of 2 reps) [1, 10]: 0% | % control (average of 2 reps) ([1]; Formula (II) 0.0003 ppm alone): 0% | % control (average of 2 reps) ([1]; Formula (II) 0.03 ppm alone): 0% | % control (average of 2 reps) ([1]; Formula (II) 1 ppm alone): 0% | antagonism of the activity of the insecticides ([1]; mixtures of Table 2.1): did not antagonise the activity of any of the insecticides | % control (average of 2 reps) [2, 10]: 0% | % control (average of 2 reps) ([2]; Formula (II) 0.0003 ppm alone): 0% | % control (average of 2 reps) ([2]; Formula (II) 0.03 ppm alone): 0% | % control (average of 2 reps) ([2]; Formula (II) 1 ppm alone): 0% | antagonism of the activity of the insecticides ([2]; mixtures of Table 2.3): did not antagonise the activity of any of the insecticides

CC(c1ccc(C(F)(F)F)nc1)S(C)(=O)=NC#N (centres unmarked) [Sulfoxaflor, sulfoxaflor, reference compound]
% control (average of 2 reps) ([2]; Sulfoxaflor 0.8 ppm alone): 100%

CN/C(=N\[N+](=O)[O-])NCc1cnc(Cl)s1 [Clothianidin, clothianidin, reference compound]
% control (average of 2 reps) ([1]; Clothianidin 50 ppm alone): 100% | % control (average of 2 reps) ([2]; Clothianidin 3 ppm alone): 100%

abamectin [reference compound]
% control (average of 2 reps) ([3]; Abamectin 0.2 ppm alone): 100% | % control (average of 2 reps) ([1]; Abamectin 3 ppm alone): 95%

OC(Cc1ccccc1Cl)(Cn1nc[nH]c1=S)C1(Cl)CC1 (centres unmarked) [Prothioconazole, prothioconazole, reference compound]
inhibition at 64 ppm [4, 12]: 97.3% | inhibition at 128 ppm [4, 12]: 95%

Cn1cc(C(=O)Nc2ccccc2C2CC2C2CC2)c(C(F)F)n1 (centres unmarked) [Sedaxane, sedaxane, reference compound]
Sedaxane Inhibition (%) ([6]; 4 ppm): 62.5% | Sedaxane Inhibition (%) ([6]; 8 ppm): 81.2% | Sedaxane Inhibition (%) ([6]; 16 ppm): 82.1% | Sedaxane Inhibition (%) ([6]; 32 ppm): 85.9% | Sedaxane Inhibition (%) ([6]; 64 ppm): 88.1%

CO/C=C(/C(=O)OC)c1ccccc1Oc1cc(Oc2ccccc2C#N)ncn1 [Azoxystrobin, azoxystrobin, reference compound]
Azoxystrobin Inhibition (%) ([7]; 8 ppm): 82.8% | Azoxystrobin Inhibition (%) ([7]; 16 ppm): 84.5% | Azoxystrobin Inhibition (%) ([7]; 32 ppm): 78.5% | Azoxystrobin Inhibition (%) ([7]; 64 ppm): 60.8%

CN1COCN(Cc2cnc(Cl)s2)/C1=N\[N+](=O)[O-] [Thiamethoxam, thiamethoxam, reference compound]
% control (average of 2 reps) ([2]; Thiamethoxam 3 ppm alone): 100%

CNC(=O)c1cc(C#N)cc(C)c1NC(=O)c1cc(Br)nn1-c1ncccc1Cl [Cyantraniliprole, cyantraniliprole, reference compound]
% control (average of 2 reps) ([3]; Cyantraniliprole 100 ppm alone): 95% | % control (average of 2 reps) ([1]; Cyantraniliprole 0.8 ppm alone): 100%

Cc1c(F)c(F)c(COC(=O)[C@@H]2[C@H](/C=C(\Cl)C(F)(F)F)C2(C)C)c(F)c1F (racemic) [Tefluthrin, tefluthrin, reference compound]
% control (average of 2 reps) ([3]; Tefluthrin 100 ppm alone): 90% | % control (average of 2 reps) ([1]; Tefluthrin 100 ppm alone): 95%
